Measured values from patent US9242970B2 (ACTELION PHARMACEUTICALS LTD., priority 2010, dated 2016).
Like-named read-outs stand apart in the source and are kept apart here.

How the values were obtained:
[1] = biological target: human orexin-2 receptor (Homo sapiens (Human), UniProt O43614); assay: In vitro assay: intracellular calcium measurements (FLIPR), antagonistic activity; type: cell-based; settings: CHO cells, 3 nM orexin-A, marked values are geometric means of n = 2-6, read-out: IC50 OX2
human orexin-2 receptor, sequence (O43614 whole entry): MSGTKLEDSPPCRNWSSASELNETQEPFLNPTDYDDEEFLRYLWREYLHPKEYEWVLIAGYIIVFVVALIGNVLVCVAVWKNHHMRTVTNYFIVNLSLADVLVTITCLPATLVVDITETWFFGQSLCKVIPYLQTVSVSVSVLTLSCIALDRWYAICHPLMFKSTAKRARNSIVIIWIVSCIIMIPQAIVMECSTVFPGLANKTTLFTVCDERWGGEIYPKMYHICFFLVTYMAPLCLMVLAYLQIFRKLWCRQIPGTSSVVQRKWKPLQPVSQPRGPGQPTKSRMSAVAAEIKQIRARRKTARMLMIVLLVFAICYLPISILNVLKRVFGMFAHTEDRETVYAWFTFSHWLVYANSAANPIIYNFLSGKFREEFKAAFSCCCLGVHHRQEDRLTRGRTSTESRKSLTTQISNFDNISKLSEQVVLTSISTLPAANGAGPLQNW

[2] = biological target: human orexin-1 receptor (Homo sapiens (Human), UniProt O43613); assay: as above; type: cell-based; settings: CHO cells, 3 nM orexin-A, marked values are geometric means of n = 2-6, read-out: IC50 OX1
human orexin-1 receptor, sequence (O43613 whole entry): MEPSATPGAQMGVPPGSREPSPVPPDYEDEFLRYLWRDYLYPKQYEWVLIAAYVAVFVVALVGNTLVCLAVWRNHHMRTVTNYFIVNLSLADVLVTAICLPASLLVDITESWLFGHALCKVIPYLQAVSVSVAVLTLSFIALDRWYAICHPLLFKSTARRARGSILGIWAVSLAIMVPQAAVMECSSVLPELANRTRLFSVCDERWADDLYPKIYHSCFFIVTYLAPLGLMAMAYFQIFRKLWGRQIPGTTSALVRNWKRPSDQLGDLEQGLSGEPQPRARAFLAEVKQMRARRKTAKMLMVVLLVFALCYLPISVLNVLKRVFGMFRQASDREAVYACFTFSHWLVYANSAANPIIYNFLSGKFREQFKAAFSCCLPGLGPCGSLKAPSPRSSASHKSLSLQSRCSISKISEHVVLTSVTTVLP

[3] = compound incubation time of 10 min

SMILES	IC50 ([1]; compound incubation 120 min) [nM]	IC50 ([2]; compound incubation 120 min) [nM]	IC50 [1, 3] [nM]	IC50 [2, 3] [nM]
CCOc1cc(F)cc(F)c1[C@@H]1C[C@H](F)C(=O)N1Cc1ccc(OC(F)(F)F)cc1 (racemic) [Example 438, rac-(3S*,5S*)-5-(2-ethoxy-4,6-difluorophenyl)-3-fluoro-1-(4-(trifluoromethoxy)benzyl)pyrrolidin-2-one]	37	921		
CCOc1cc(F)cc(F)c1[C@@H]1C[C@H](Cl)C(=O)N1Cc1ccc(OC(F)(F)F)cc1 (racemic) [Example 439, rac-(3S*,5S*)-3-chloro-5-(2-ethoxy-4,6-difluorophenyl)-1-(4-(trifluoromethoxy)benzyl)pyrrolidin-2-one]	63	575		
COc1cccc(OC)c1C1CCCC(=O)N1Cc1cnc2ccccc2c1 (centres unmarked) [Example 1, 6-(2,6-dimethoxyphenyl)-1-(quinolin-3-ylmethyl)piperidin-2-one]			209	643
COc1cccc(OC)c1C1CCCC(=O)N1Cc1ccc2sc(C)nc2c1 (centres unmarked) [Example 2, 6-(2,6-dimethoxyphenyl)-1-((2-methylbenzo[d]thiazol-5-yl)methyl)piperidin-2-one]	13	26		
COc1cccc(OC)c1C1CCCC(=O)N1Cc1ccc2ncccc2c1 (centres unmarked) [Example 3, 6-(2,6-dimethoxyphenyl)-1-(quinolin-6-ylmethyl)piperidin-2-one]	1000	154		
COc1cccc(OC)c1C1CCCC(=O)N1Cc1cnc(OC(F)F)c(Cl)c1 (centres unmarked) [Example 5, 1-((5-chloro-6-(difluoromethoxy)pyridin-3-yl)methyl)-6-(2,6-dimethoxyphenyl)piperidin-2-one]	38	224		
COc1cccc(OC)c1C1CCCC(=O)N1Cc1cccc(-c2ccc(F)cc2)n1 (centres unmarked) [Example 6, 6-(2,6-dimethoxyphenyl)-1-((6-(4-fluorophenyl)pyridin-2-yl)methyl)piperidin-2-one]	142	119		
COc1cccc(OC)c1C1CCCC(=O)N1Cc1cccc(-c2cccnc2)c1 (centres unmarked) [Example 7, 6-(2,6-dimethoxyphenyl)-1-(3-(pyridin-3-yl)benzyl)piperidin-2-one]	55	71		
COc1cccc(OC)c1C1CCCC(=O)N1Cc1cncc(-c2ccccc2)c1 (centres unmarked) [Example 8, 6-(2,6-dimethoxyphenyl)-1-((5-phenylpyridin-3-yl)methyl)piperidin-2-one]	700	1700		
COc1cccc(OC)c1C1CCCC(=O)N1Cc1cccc(-c2ccncc2)c1 (centres unmarked) [Example 9, 6-(2,6-dimethoxyphenyl)-1-(3-(pyridin-4-yl)benzyl)piperidin-2-one]	64	29		
COc1cccc(OC)c1C1CCCC(=O)N1Cc1cccc(-c2ccccn2)c1 (centres unmarked) [Example 10, 6-(2,6-dimethoxyphenyl)-1-(3-(pyridin-2-yl)benzyl)piperidin-2-one]	8	9		
COc1cccc(OC)c1C1CCCC(=O)N1Cc1cccc(-c2ccccc2)n1 (centres unmarked) [Example 11, 6-(2,6-dimethoxyphenyl)-1-((6-phenylpyridin-2-yl)methyl)piperidin-2-one]	43	34		
COc1cccc(OC)c1C1CCCC(=O)N1Cc1ccnc(-c2ccccc2)c1 (centres unmarked) [Example 12, 6-(2,6-dimethoxyphenyl)-1-((2-phenylpyridin-4-yl)methyl)piperidin-2-one]	34	25		
COc1cccc(OC)c1C1CCCC(=O)N1Cc1cccc(N2CCCCC2)c1 (centres unmarked) [Example 13, 6-(2,6-dimethoxyphenyl)-1-(3-(piperidin-1-yl)benzyl)piperidin-2-one]	46	22		
COc1cccc(OC)c1C1CCCC(=O)N1Cc1cccc(-c2nccs2)c1 (centres unmarked) [Example 14, 6-(2,6-dimethoxyphenyl)-1-(3-(thiazol-2-yl)benzyl)piperidin-2-one]	4	4		
COc1cccc(OC)c1C1CCCC(=O)N1Cc1cccc2ccccc12 (centres unmarked) [Example 15, 6-(2,6-dimethoxyphenyl)-1-(naphthalen-1-ylmethyl)piperidin-2-one]	23	210		
